Test results taken from patent US4279915A, “Method of treatment using new leurosine derivatives” (priority 1973, dated 1981).

What was measured:
[1] = acute toxicity in Swiss mice; format: in vivo, mouse; settings: mouse, in vivo, Swiss mice
Text: (§1) ACUTE TOXICITY IN SWISS MICE
(§2) Table III lists the comparative toxicological data concerning Vincristine, Vinblastine and F-leurosine. The new analogue is approximately 7 times less toxic than Vincristine and 4 times less toxic than Vinblastine in acute rodent experiments.

[2] = test system: Swiss mice; assay: acute toxicity in Swiss mice; format: in vivo, mouse
Text: as §1, §2

[3] = test system: Ehrlich ascites carcinoma; assay: antitumor effect on Ehrlich ascites carcinoma; format: in vivo, mice
Text: This compound provides complete recovery or a 300 percent extension of life span in 50 to 70 percent of the cases, in tests on mice inoculated with Ehrlich ascites carcinoma or NK/Ly lymphoma.
EFFECT OF F-LEUROSINE ON ASCITIC TUMORS

[4] = test system: L 1210 leukemia; assay: effect on L 1210 i.p. leukemia; format: in vivo, BDF1 mice
Text: The treatment extends the life span of animals suffering from L-1210 lymphoid leukemia, s37 ascites sarcoma or Yoshida ascites sarcoma by about 150 to 250 percent.
L 1210 I.P. LEUKEMIA ON BDF1 MICE

[5] = test system: Novikoff; assay: antitumor effect on Novikoff ascitic tumor; format: in vivo
Text: |EFFECT OF F-LEUROSINE ON ASCITIC TUMORS

[6] = test system: Harding Passey melanoma; assay: growth inhibition of Harding Passey melanoma; format: in vivo
[7] = test system: VX-2 rabbit epitheloma; assay: growth inhibition of VX-2 rabbit epitheloma; format: in vivo
[8] = test system: solid tumors; assay: clinical treatment of patients with solid tumors (Example B); format: in vivo, human; settings: for decrease of prothrombin index and activity: by the 7th day of treatment
Procedure: N-formyl-leurosine was administered in form of i.v. injection as single treatment or in 5 and 2×5 day long periods continually to exclusively patients with solid tumors.
Simultaneously adjuvant therapy was applied (analgesics, antibiotics, cardiac drugs, roborants) if necessary.
Following single treatments primarily the effect on blood picture, and especially on leukocyte count was observed. In case of higher total doses given continuously for 5 or 10 days, liver function, enzymes, serum creatinine, uric acid level were also determined. The neurological condition of the patients was also controlled.

[9] = test system: leukaemias; assay: effect of F-leurosine on leukaemias in patients (Table I); format: in vivo, human; settings: for haematological effect: schedule C
[10] = test system: leukemia; assay: Phase I trial, escalation and evaluation period; format: in vivo, human; settings: up to 0.05 mg/kg/day i.v. six consecutive days, escalation period
Procedure: Fourteen patients were treated. The patient selection met the following criteria: (a) all types of leukemia, (b) all patients previously treated without success, (e) no X-ray or chemotherapy was administered four weeks prior to therapy, (d) at least eight weeks follow-up. In the escalation period 0.01 mg/kg/day i.v. was given five consecutive days as initial dose.
DOSAGE OF F-LEUROSINE IN PHASE I TRIAL
In addition, eight patients were added to the group treated on the basis of this schedule.

[11] = test system: lymphoma, leukemia and Hodgkins disease; assay: antitumor activity; format: in vivo
[12] = 4 × 0.6 mg/kg i.p. each other day
[13] = 8 × 2.5 mg/kg i.p. 48 hr interval
[14] = 8 × 2.5 mg/kg i.p. 72 hr interval
[15] = 8 × 5.0 mg/kg i.p. 48 hr interval
[16] = 8 × 5.0 mg/kg i.p. 72 hr interval
[17] = 8 × 5.0 mg/kg i.p. 96 hr interval
[18] = 8 × 7.5 mg/kg i.p. 72 hr interval
[19] = 8 × 7.5 mg/kg i.p. 96 hr interval
[20] = 8 × 10.0 mg/kg i.p. 48 hr interval
[21] = 8 × 10.0 mg/kg i.p. 72 hr interval
[22] = 8 × 10.0 mg/kg i.p. 96 hr interval
[23] = 4 × 3.0 mg/kg i.p. each other day

CCC12CN3CCc4c([nH]c5ccccc45)[C@@](C(=O)OC)(c4cc5c(cc4OC)N(C=O)[C@H]4[C@@](O)(C(=O)OC)[C@H](OC(C)=O)[C@]6(CC)C=CCN7CC[C@]54[C@@H]76)C[C@@H](C3)C1O2 (stereo partly drawn) [N-formyl-leurosine]
LD50 ([1]; ip, 1 x i.p.): 28.8 mg/kg
LD50 ([1]; iv, 1 x i.v.): 32.5 mg/kg
times less toxic than Vinblastine ([2]; acute rodent experiments): ~4 times
times less toxic than Vincristine ([2]; acute rodent experiments): approximately 7 times
signs of neurotoxicity ([2]; even subluthal doses, experimental animals): did not show any signs of neurotoxicity
toxicity relative to vinblastine ([2]; i.p., on mice (text b8)): about five times less toxic than vinblastine
toxicity relative to vincristine ([2]; i.p., on mice (text b8)): about ten times less toxic than vincristine
extension of life span [3]: 300%
Survival [3, 12]: 288
Tumor free [3, 12]: 7/10
Survival ([3]; 7 × 3.0 mg/kg i.p. daily): 244
Tumor free ([3]; 7 × 3.0 mg/kg i.p. daily): 3/10
Survival ([3]; 24 × 0.15 mg/kg i.p. daily): 118
Tumor free ([3]; 24 × 0.15 mg/kg i.p. daily): 3/10
Mean survival ([4]; 8 × 1.25 mg/kg i.p. daily): 27.7 days
Survival ([4]; 8 × 1.25 mg/kg i.p. daily): 131
Mean survival [4, 13]: 22.4 days
Survival [4, 13]: 137
Mean survival [4, 14]: 12.0 days
Survival [4, 14]: 48
Mean survival ([4]; 8 × 2.5 mg/kg i.p. daily): 25.0 days
Survival ([4]; 8 × 2.5 mg/kg i.p. daily): 127
Mean survival [4, 15]: 24.0 days
Survival [4, 15]: 126
Mean survival [4, 16]: 22.1 days
Survival [4, 16]: 123
Mean survival [4, 17]: 10.8 days
Survival [4, 17]: 35
Mean survival ([4]; 8 × 5.0 mg/kg i.p. daily): 23.0 days
Survival ([4]; 8 × 5.0 mg/kg i.p. daily): 109
Mean survival [4, 18]: 20.2 days
Survival [4, 18]: 117
Mean survival [4, 19]: 19.2 days
Survival [4, 19]: 95
Mean survival ([4]; 8 × 7.5 mg/kg i.p. daily): 19.5 days
toxicity mark in Survival column ([4]; 8 × 7.5 mg/kg i.p. daily): tox
Survival ([4]; 8 × 7.5 mg/kg i.p. daily, tox): 56
Mean survival [4, 20]: 21.7 days
toxicity mark in Survival column [4, 20]: tox
Survival ([4]; 8 × 10.0 mg/kg i.p. 48 hr interval, tox): 60
Mean survival [4, 21]: 22.3 days
Survival [4, 21]: 145
Mean survival [4, 22]: 23.6 days
Survival [4, 22]: 136
potency of small daily doses vs high doses twice weekly ([4]; BDF1 mice): equally potent
sensitivity of L-1210 leukemia to the treatment ([4]; BDF1 mice): sensitive to the treatment
extension of life span ([4]; L-1210 lymphoid leukemia, about): 150-250%
Survival [5, 23]: 196
Tumor free [5, 23]: 1/6
Survival ([5]; 6 × 2.0 mg/kg i.p. daily): 166
Tumor free ([5]; 6 × 2.0 mg/kg i.p. daily): 0/6
growth inhibition [6]: remarkable growth inhibition
growth inhibition [7]: remarkable growth inhibition
tumor growth: progress during the treatment ([8]; 0.018 mg/kg during 2×5 days, one case): express progress during the treatment
tumor growth: regression by X-ray and touching ([8]; 0.030 mg/kg during 2×5 days, one case): slight regression
leukocyte count change ([8]; between the 3rd and 5th days): decreased again
leukocyte count level ([8]; between the 3rd and 5th days, remained over): over 3000
leukocyte count ([8]; between the 9th and 14th days): returns to the initial value
tumor growth: other cases ([8]; continuous administration): No changes were found in other cases
effect on tumor growth ([8]; continuous administration of 0.018-0.035 mg/kg doses): some effect was observed
qualitative blood picture ([8]; dose level presently used): no change was shown
levels of enzymes (serum alk, phosphatase, SGOT, SGPT) ([8]; during the treatment): did not essentially change
leukocyte count ([8]; first 48 hours): increased
liver function, urinalysis, serum creatinine and uric acid levels ([8]; human, in vivo): no changes or signs indicating toxicity were found
neurological side-effects ([8]; human, in vivo): not observed
decrease of prothrombin index and activity ([8]; one case): 50%
prothrombin-time, increase ([8]; six cases): increased in three cases out of six
prothrombin time, decrease ([8]; two cases): very slightly decreased
decrease of prothrombin index and activity ([8]; two cases): 37%
clinical improvement parallel with the haematological one ([9]; ALL and AML patients): observed only in the case of the ALL patient
duration of complete haematological remission ([9]; ALL patient): 2 months
outcome after treatment ([9]; AML patient): died one month after the end of the treatment
time to relapse after finishing treatment ([9]; AML patient, relapse untreatable because of serious thrombopenia and bleeding): 14 days
splenomegaly ([9]; CLL, first case): splenomegaly diminished
enlargement of pathological lymph nodes ([9]; CLL, second case (T. B.)): became less pronounced
lymph nodes and spleen volume ([9]; CLL, third case): both the lymph nodes and the spleen increased in volume
clinical improvement ([9]; chronic lymphocytic leukaemia): some clinical improvement was achieved in all the 3 CLL patients
haematological remission ([9]; chronic lymphocytic leukaemia): no haematological remission could be induced
complete haematological remission ([9]; four cases of acute leukaemia, one ALL, one AML): Complete haematological remission was achieved in two cases
haematological effect ([9]; patient seven, AMoL): IR>50%
haematological effect ([9]; patient six, AUL): IR>50%
antitumor activity [10]: striking antitumor activity
signs of toxicity [10]: without signs of toxicity
antitumor activity [11]: favorable antitumor activity
